Assays:
Format in all cases: in vivo
[1] = test system: barnyardgrass (Echinochloa crus-galli); assay: Test C greenhouse herbicide test, pre- and postemergence
In short: (§1)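 Preemergence: seeds sown in a loam soil–sand blend and sprayed with test chemicals in a non-phytotoxic solvent mixture containing surfactant. Postemergence: plants grown in peat-based medium and treated at 2 to 18 cm (1- to 4-leaf stage). After 13 to 15 d in a greenhouse, injury was visually rated 0–100 against controls.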

[2] = test system: blackgrass (Alopecurus myosuroides); assay: as above
In short: as §1

[3] = test system: corn (Zea mays); assay: as above
In short: as §1

[4] = test system: crabgrass, large (large crabgrass, Digitaria sanguinalis); assay: as above
In short: as §1

[5] = test system: foxtail, giant (giant foxtail, Setaria faberii); assay: as above
In short: as §1

[6] = test system: galium (catchweed bedstraw, Galium aparine); assay: as above
In short: as §1

[7] = test system: johnsongrass (Sorghum halepense); assay: as above
In short: as §1

[8] = test system: nutsedge, yellow (yellow nutsedge, Cyperus esculentus); assay: as above
In short: as §1

[9] = test system: ryegrass, Italian (Italian ryegrass, Lolium multiflorum); assay: as above
In short: as §1

[10] = test system: soybean (Glycine max); assay: as above
In short: as §1

[11] = test system: velvetleaf (Abutilon theophrasti); assay: as above
In short: as §1

[12] = test system: wheat (winter wheat, Triticum aestivum); assay: as above
In short: as §1

[13] = test system: waterhemp_RES2 (ALS & HPPD resistant common waterhemp, Amaranthus rudis); assay: Test E greenhouse herbicide test, postemergence
In short: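 Greenhouse test, 14–21 d after postemergence treatment of 2–18 cm plants; percent control was assessed visually, 0–100, against untreated plants.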

[14] = Postemergence, 31 g ai/ha, 0 to 100 scale (0 no effect, 100 complete control)
[15] = Postemergence, 125 g ai/ha, scale 0 to 100, 0 is no effect, 100 is complete control
[16] = Postemergence, 250 g ai/ha, scale 0 to 100, 0 no effect, 100 complete control, 13 to 15 d
[17] = Preemergence, 31 g ai/ha, scale 0 to 100, 0 is no effect, 100 is complete control
[18] = Preemergence, 62 g ai/ha, scale 0 to 100, 0 is no effect, 100 is complete control
[19] = Preemergence, 125 g ai/ha, scale 0 to 100, 0 is no effect, 100 is complete control
[20] = Preemergence, 250 g ai/ha, scale 0 to 100, 0 no effect, 100 complete control
[21] = postemergence, 62 g ai/ha, scale 0 to 100, 0 no effect, 100 complete control

For CC(=O)Oc1c(C)nn(C)c(=O)c1-c1c(C)cc(C)c2ccccc12 [Compound 99], the “Barnyardgrass plant response rating” value [1, 14] was 25, the “Plant response rating, Barnyardgrass” value [1, 15] was 35 and the “Plant response rating, Barnyardgrass” value [1, 16] was 35. For the same compound, the “Plant response rating, Barnyardgrass” value [1, 17] was 5, the “Plant response rating, Barnyardgrass” value [1, 18] was 15 and the “Plant response rating, Barnyardgrass” value [1, 19] was 55. For the same compound, the “Barnyardgrass plant response rating” value [1, 20] was 85, the “Barnyardgrass plant response rating” value [1, 21] was 25 and the “Blackgrass plant response rating” value [2, 14] was 20. For the same compound, the “Plant response rating, Blackgrass” value [2, 15] was 50, the “Plant response rating, Blackgrass” value [2, 16] was 65 and the “Plant response rating, Blackgrass” value [2, 17] was 50. For the same compound, the “Plant response rating, Blackgrass” value [2, 18] was 70, the “Plant response rating, Blackgrass” value [2, 19] was 90 and the “Blackgrass plant response rating” value [2, 20] was 90. The “Blackgrass plant response rating” value [2, 21] was 30, the “Corn plant response rating” value [3, 14] was 0 and the “Plant response rating, Corn” value [3, 15] was 10. The “Plant response rating, Corn” value [3, 16] was 10, the “Plant response rating, Corn” value [3, 17] was 5 and the “Plant response rating, Corn” value [3, 18] was 20. For the same compound, the “Plant response rating, Corn” value [3, 19] was 10, the “Corn plant response rating” value [3, 20] was 30 and the “Corn plant response rating” value [3, 21] was 5. For the same compound, the “Plant response rating, Crabgrass, Large” value [4, 15] was 30, the “Plant response rating, Crabgrass, Large” value [4, 16] was 50 and the “Plant response rating, Crabgrass, Large” value [4, 17] was 30. For the same compound, the “Plant response rating, Crabgrass, Large” value [4, 18] was 35, the “Plant response rating, Crabgrass, Large” value [4, 19] was 60 and the “Crabgrass, Large plant response rating” value [4, 20] was 80. For the same compound, the “Crabgrass, Large plant response rating” value [4, 21] was 20, the “Plant response rating, Foxtail, Giant” value [5, 15] was 30 and the “Plant response rating, Foxtail, Giant” value [5, 16] was 50. The “Plant response rating, Foxtail, Giant” value [5, 17] was 40, the “Plant response rating, Foxtail, Giant” value [5, 18] was 35 and the “Plant response rating, Foxtail, Giant” value [5, 19] was 65. For the same compound, the “Foxtail, Giant plant response rating” value [5, 20] was 90, the “Foxtail, Giant plant response rating” value [5, 21] was 15 and the “Plant response rating, Galium” value [6, 15] was 98. For the same compound, the “Plant response rating, Galium” value [6, 16] was 98, the “Plant response rating, Galium” value [6, 19] was 98 and the “Galium plant response rating” value [6, 20] was 98. The “Galium plant response rating” value [6, 21] was 95, the “Plant response rating, Johnsongrass” value [7, 15] was 10 and the “Plant response rating, Johnsongrass” value [7, 16] was 5. The “Plant response rating, Johnsongrass” value [7, 17] was 0, the “Plant response rating, Johnsongrass” value [7, 18] was 0 and the “Plant response rating, Johnsongrass” value [7, 19] was 0. For the same compound, the “Johnsongrass plant response rating” value [7, 20] was 20, the “Johnsongrass plant response rating” value [7, 21] was 10 and the “Plant response rating, Nutsedge, Yellow” value [8, 15] was 75. The “Plant response rating, Nutsedge, Yellow” value [8, 16] was 85, the “Plant response rating, Nutsedge, Yellow” value [8, 17] was 20 and the “Plant response rating, Nutsedge, Yellow” value [8, 18] was 70. The “Plant response rating, Nutsedge, Yellow” value [8, 19] was 60, the “Nutsedge, Yellow plant response rating” value [8, 20] was 90 and the “Nutsedge, Yellow plant response rating” value [8, 21] was 55. For the same compound, the “Plant response rating, Ryegrass, Italian” value [9, 15] was 95, the “Plant response rating, Ryegrass, Italian” value [9, 16] was 95 and the “Plant response rating, Ryegrass, Italian” value [9, 17] was 90. The “Plant response rating, Ryegrass, Italian” value [9, 18] was 90, the “Plant response rating, Ryegrass, Italian” value [9, 19] was 100 and the “Ryegrass, Italian plant response rating” value [9, 20] was 100. For the same compound, the “Ryegrass, Italian plant response rating” value [9, 21] was 90, the “Plant response rating, Soybean” value [10, 15] was 5 and the “Plant response rating, Soybean” value [10, 16] was 5. For the same compound, the “Plant response rating, Soybean” value [10, 17] was 0, the “Plant response rating, Soybean” value [10, 18] was 0 and the “Plant response rating, Soybean” value [10, 19] was 5. The “Soybean plant response rating” value [10, 20] was 20, the “Soybean plant response rating” value [10, 21] was 5 and the “Plant response rating, Velvetleaf” value [11, 15] was 98. The “Plant response rating, Velvetleaf” value [11, 16] was 100, the “Plant response rating, Velvetleaf” value [11, 17] was 60 and the “Plant response rating, Velvetleaf” value [11, 18] was 75. The “Plant response rating, Velvetleaf” value [11, 19] was 90, the “Velvetleaf plant response rating” value [11, 20] was 95 and the “Velvetleaf plant response rating” value [11, 21] was 85. For the same compound, the “Plant response rating, Wheat” value [12, 15] was 10, the “Plant response rating, Wheat” value [12, 16] was 10 and the “Plant response rating, Wheat” value [12, 17] was 0. The “Plant response rating, Wheat” value [12, 18] was 0, the “Plant response rating, Wheat” value [12, 19] was 30 and the “Wheat plant response rating” value [12, 20] was 65. For the same compound, the “Wheat plant response rating” value [12, 21] was 0, the “Plant response rating, Waterhemp_RES2” value ([13]; 16 g ai/ha, visual, scale 0 no effect to 100 complete control) was 50 and the “Plant response rating, Waterhemp_RES2” value ([13]; 31 g ai/ha, visual, scale 0 no effect to 100 complete control) was 50. For the same compound, the “Plant response rating, Waterhemp_RES2” value ([13]; 125 g ai/ha, scale 0 to 100 (0 no effect, 100 complete control)) was 60.

— US10597388B2, “Pyridazinone herbicides” (FMC CORPORATION, priority 2014, dated 2020)
